# Source: US4191780A, “Bromhexine derivatives and process for making same” (priority 1978, dated 1980)
# Assays:
# [1] = test system: Cough elicited by 15% citric acid spray; assay: Antitussive activity in mice, citric acid spray cough; type: in vivo; details: Mus musculus, oral, 1 hour after administration, confidence limits P = 0.05
# Description: (§1) (6) Antitussive effect in Guinea-pigs and mice
# (§2) Cough is elicited by 15% citric acid spray in both species, according to the method by Harsany et al. (Boll. Chim. Farm. 112, 691, 1973). The effect was tested 1 hour after oral administration and 30 min. after intraperitoneal application of the antitussive agents on mice and Guinea-pigs respectively.
# (§3) ED50 values of the drugs are computed by the method of Litchfield and Wilcoxon (Litchfield, J. T. Jr., and Wilcoxon F., J. Pharmacol. exp. Ther. 96,99--1949).
# [2] = test system: Pain induced by a chemical stimulus; assay: Siegmund Test: pain induced by a chemical stimulus (acetic acid writhing); type: in vivo, mice; details: mouse, 300 mg/kg oral
# Description: (§4) Two test methods are used for establishing the action of Bromhexine and IFT 1026 on noci-ceptive stimuli in mice.
# (§5) (a) Pain induced by a chemical stimulus according to the method of Siegmund (Siegmund E., Cadmier, R., and Lu, G. Proc. Soc. exp. Biol. N.Y. 95, 729--1957). The mice distributed at random into groups of 10 animals, are deprived of solid food for the 18-hour period prior to the test. […] Thirty minutes after treatment the mice are injected i.p. with 0.1 ml/10 g of a 1.5% acetic acid solution. The writhing is recorded for a 20 min. period following this i.p. injection.
# [3] = Long-term toxicity in rats: biochemical parameters; type: in vivo, rat; details: daily oral 250 mg/kg Bromhexine, 350 mg/kg IFT 1026
# [4] = Long-term toxicity in rats: organ weights at necropsy; type: in vivo; details: fresh weight, daily oral 250 mg/kg Bromhexine, 350 mg/kg IFT 1026
# Description: Effect of daily oral administration of 250 mg/kg Bromhexine and 350 mg/kg
# organ weights of rats, expressed as grams of fresh weight.
# [5] = Long-term toxicity in rats (16 weeks): mean body weight; type: in vivo
# Source text: Effect of daily oral administration of various doses of
# IFT 1026 and Bromhexine on mean body weight of rats.
# [6] = Long-term toxicity in rats: mortality, pathology and general state; details: rat, in vivo
# Description: Long-term toxicity (16 weeks) of IFT 1026 is tested in comparison to the parent compound (Bromhexine).
# [7] = Long-term toxicity in rats: hematological parameters; type: in vivo, rat; details: daily oral Bromhexine 250 mg/kg, IFT 1026 350 mg/kg
# Description: The hematological and biochemical values relating to the groups under treament with the above reported doses are shown in Tables Nos. 4 and 5. These values are virtually the same for both treated and control animals.
# Effect of daily oral administration of Bromhexine 250 mg/kg
# and IFT 1026 350 mg/kg on the hematological parameters in […]
# noci-ceptive stimuli = assay: Study of analgesic action on mice (both tests); type: in vivo; details: 300 mg/kg oral
# Description: as §4, §5
# (§6) (b) Pain induced by a physical stimulation according to the hot-plate test technique by Eddy and Leimbach (Eddy, N. B. and Leimbach, O., J. Pharmacol. exp.Ther. 107, 383--1953). The temperature of the plate was kept at 57° C. Groups of 12 mice are treated as described under (a) above. The reaction times are measured 15 min. before treatment (Ro) and 4 times after the administration (every 15 min). Only the maximal response is taken into account (Rmax).
# [8] = test system: Pain induced by a physical stimulation; assay: Hot-plate Test (Eddy and Leimbach): pain induced by a physical stimulation; type: in vivo, mice; details: mouse, 300 mg/kg oral, plate at 57° C.
# Description: as §4, §6
# [9] = Bromsulphtalein (BSP) clearance in rats treated with the lower dose; type: in vivo; details: 30 min after 50 mg/kg BSP i.v., lower dose of drug
# Description: The possibility to use BSP for the diagnosis of lesions in liver parenchyma is well known. Bromsulphtalein (BSP) clearance was made according to Carpi and Parenti (Carpi, C. and M. A. Parenti, Il Farmaco, Ed. Pr. vol. 17, page 45, 1962). Thirty minutes after the i.v. administration of 50 mg/kg BSP to control rats, the mean plasma level of the dyestuff is 80±12 mcg/ml.
# % of rate showing BSP plasma levels greater than 80 mcg/ml
# (control values) and 160 mcg/ml (two-fold control values)
# [10] = Eight-day toxicity studies in mice, lethality (i.p.); type: in vivo; details: for Total number of deaths: 8 days
# Source text: Eight-day toxicity studies of IFT 1026 and Bromhexine in mice.
# [11] = test system: Cough elicited by 15% citric acid spray; assay: Antitussive activity in Guinea-pigs, citric acid spray cough; type: in vivo; details: Cavia porcellus, ip, 0.5 h, intraperitoneal, 30 min. after application, confidence limits P = 0.05
# Description: as §1, §2, §3
structure (smiles),measurement,setting,value
"CN(Cc1cc(Br)cc(Br)c1N)C1CCCCC1 [Bromhexine, N-cyclohexyl-N-methyl-2-(2-amino-3,5-dibromo)benzylammonium chloride]",ED50,[1],194 mg/kg
same,"Siegmund Test, number of writhings for a 20 min. period, mean ± SE",[2],32 ± 3
same,"A/G ratio (Albumin/Globulin), mean ± SE",[3]; females,2.6 ± 0.1
same,"BUN, mean ± SE",[3]; females,44.9 ± 4 mg %
same,"GLUCOSE, mean ± SE",[3]; females,77.1 ± 9 mg %
same,"SGOT, mean ± SE",[3]; females,24.1 ± 0.5 Units/ml
same,"SGPT, mean ± SE",[3]; females,12.6 ± 0.3 Units/ml
same,"TOTAL PROTEIN, mean ± SE",[3]; females,25.8 ± 1.1 mg/mL
same,"A/G ratio (Albumin/Globulin), mean ± SE",[3]; males,2.4 ± 0.2
same,"BUN, mean ± SE",[3]; males,34.5 ± 3 mg %
same,"GLUCOSE, mean ± SE",[3]; males,88.5 ± 6 mg %
same,"SGOT, mean ± SE",[3]; males,24.8 ± 0.5 Units/ml
same,"SGPT, mean ± SE",[3]; males,12.7 ± 0.15 Units/ml
same,"TOTAL PROTEIN, mean ± SE",[3]; males,27.1 ± 2.5 mg/mL
same,"organ weight, Adrenal glands",[4]; females,4.7 ± 0.1 10^-2 grams
same,"organ weight, Brain",[4]; females,19.7 ± 0.5 10^-1 grams
same,"organ weight, Heart",[4]; females,8.3 ± 0.2 10^-1 grams
same,"organ weight, Kidneys",[4]; females,18.8 ± 0.9 10^-1 grams
same,"organ weight, Liver",[4]; females,10.5 ± 0.2 grams
same,"organ weight, Lungs",[4]; females,14.4 ± 0.9 10^-1 grams
same,"organ weight, Spleen",[4]; females,7.9 ± 0.2 10^-1 grams
same,"organ weight, Adrenal glands",[4]; males,3.8 ± 0.2 10^-2 grams
same,"organ weight, Brain",[4]; males,14 ± 1 10^-1 grams
same,"organ weight, Heart",[4]; males,8.8 ± 1.4 10^-1 grams
same,"organ weight, Kidneys",[4]; males,18.4 ± 0.5 10^-1 grams
same,"organ weight, Liver",[4]; males,10.6 ± 0.2 grams
same,"organ weight, Lungs",[4]; males,11.6 ± 1.7 10^-1 grams
same,"organ weight, Spleen",[4]; males,6 ± 0.6 10^-1 grams
same,"body weight, mean ± SE","[5]; females, 50 mg/kg daily oral, 0 days",110 ± 5 g
same,"body weight, mean ± SE","[5]; females, 50 mg/kg daily oral, 21 days",174 ± 2 g
same,"body weight, mean ± SE","[5]; females, 50 mg/kg daily oral, 45 days",217 ± 4 g
same,"body weight, mean ± SE","[5]; females, 50 mg/kg daily oral, 60 days",229 ± 4 g
same,"body weight, mean ± SE","[5]; females, 250 mg/kg daily oral, 0 days",109 ± 6 g
same,"body weight, mean ± SE","[5]; females, 250 mg/kg daily oral, 21 days",158 ± 5 g
same,"body weight, mean ± SE","[5]; females, 250 mg/kg daily oral, 45 days",206 ± 4 g
same,"body weight, mean ± SE","[5]; females, 250 mg/kg daily oral, 60 days",230 ± 3 g
same,"body weight, mean ± SE","[5]; females, 1000 mg/kg daily oral, 0 days",117 ± 6 g
same,"body weight, mean ± SE","[5]; females, 1000 mg/kg daily oral, 21 days",147 ± 13 g
same,"body weight, mean ± SE","[5]; females, 1000 mg/kg daily oral, 45 days",157 ± 7 g
same,"body weight, mean ± SE","[5]; females, 1000 mg/kg daily oral, 60 days",188 ± 12 g
same,"body weight, mean ± SE","[5]; males, 50 mg/kg daily oral, 0 days",115 ± 9 g
same,"body weight, mean ± SE","[5]; males, 50 mg/kg daily oral, 21 days",225 ± 6 g
same,"body weight, mean ± SE","[5]; males, 50 mg/kg daily oral, 45 days",295 ± 7 g
same,"body weight, mean ± SE","[5]; males, 50 mg/kg daily oral, 60 days",365 ± 7 g
same,"body weight, mean ± SE","[5]; males, 250 mg/kg daily oral, 0 days",118 ± 12 g
same,"body weight, mean ± SE","[5]; males, 250 mg/kg daily oral, 21 days",218 ± 7 g
same,"body weight, mean ± SE","[5]; males, 250 mg/kg daily oral, 45 days",285 ± 8 g
same,"body weight, mean ± SE","[5]; males, 250 mg/kg daily oral, 60 days",355 ± 9 g
same,"body weight, mean ± SE","[5]; males, 1000 mg/kg daily oral, 0 days",110 ± 7 g
same,"body weight, mean ± SE","[5]; males, 1000 mg/kg daily oral, 21 days",180 ± 9 g
same,"body weight, mean ± SE","[5]; males, 1000 mg/kg daily oral, 45 days",250 ± 8 g
same,"body weight, mean ± SE","[5]; males, 1000 mg/kg daily oral, 60 days",290 ± 12 g
same,variations in the body weights versus control group,"[5]; rats, exception: Bromhexine 1000 mg/kg/day",lower values than their control group
same,animals that died during the study,[6],Five
same,rats displaying liver steatosis,[6],Four
same,"RBC, mean ± SE",[7]; females,752 ± 37 10^6 /ml
same,"WBC, mean ± SE",[7]; females,132 ± 5 10^2 /ml
same,"RBC, mean ± SE",[7]; males,774 ± 63 10^6 /ml
same,"WBC, mean ± SE",[7]; males,168 ± 20 10^2 /ml
same,Responses to algogenic stimuli,noci-ceptive stimuli,not suppressed
same,"Hot-plate Test (R max/Ro), mean ± SE",[8],1.5 ± 0.18
same,% showing BSP plasma levels >160 mcg/ml,"[9]; X^2 = 0.43, N.S.",12%
same,"rats showing BSP plasma levels >160 mcg/ml, number/tested","[9]; X^2 = 0.43, N.S.",2/17
same,% showing BSP plasma levels >80 mcg/ml,"[9]; X^2 = 0.7, N.S.",41%
same,"rats showing BSP plasma levels >80 mcg/ml, number/tested","[9]; X^2 = 0.7, N.S.",7/17
same,Number of deaths at day 3,[10]; daily dose 300 mg/k,1
same,Number of deaths at day 6,[10]; daily dose 300 mg/k,1
same,Total number of deaths,[10]; daily dose 300 mg/k,2/10
same,Number of deaths at day 3,[10]; daily dose 600 mg/k,1
same,Number of deaths at day 5,[10]; daily dose 600 mg/k,1
same,Number of deaths at day 6,[10]; daily dose 600 mg/k,1
same,Number of deaths at day 7,[10]; daily dose 600 mg/k,1
same,Number of deaths at day 8,[10]; daily dose 600 mg/k,1
same,Total number of deaths,[10]; daily dose 600 mg/k,5/10
same,ED50,[11],143 mg/kg
